ChEMBL document CHEMBL4725235, “Small molecule DTDQ exerts anti-metastatic effects in DU145 human castration-resistant prostate cancer cells via modulations of ERK, JNK, p38 and c-Myc signaling pathways” (Bioorg Med Chem Lett, 2020)
The source made the active and inactive calls. No cut-off for these calls is given here.

Legend:
DU-145 [1] = test: Cytotoxicity against human DU-145 cells assessed as reduction in cell viability at 10 uM incubated for 24 hrs by CCK8 assay relative to control; assay type: functional
DU-145 [2] = test: Cytotoxicity against human DU-145 cells assessed as reduction in cell viability after 24 hrs by CCK8 assay; assay type: functional, cell-based; settings: DU-145, 24 h
DU-145 [3] = test: Inhibition of colony formation in human DU-145 cells at 12 to 24 uM incubated for 2 weeks with media replacement for every 3 days by crystal violet staining based microscopic analysis; assay type: functional, cell-based; settings: dose microM 12-24, time 2.0 weeks
DU-145 [4] = test: Inhibition of cell migration in human DU-145 cells at 12 to 24 uM incubated for 24 hrs by wound healing assay; assay type: functional, cell-based; settings: dose microM 12-24, time 24.0 hrs
DU-145 [5] = test: Antiinvasive activity against human DU-145 cells assessed as inhibition of cell migration at 12 to 24 uM incubated for 20 hrs by Boyden chamber assay; assay type: functional, cell-based; settings: dose microM 12-24, time 20.0 hrs
DU-145 [6] = test: Inhibition of metastasis in human DU-145 cells assessed as reduction in MMP2 expression incubated for 48 hrs by Western blot analysis; assay type: functional, cell-based; settings: dose microM 12-24, time 48.0 hrs
DU-145 [7] = test: Inhibition of metastasis in human DU-145 cells assessed as reduction in MMP9 expression incubated for 48 hrs by Western blot analysis; assay type: functional, cell-based; settings: dose microM 12-24, time 48.0 hrs
DU-145 [8] = test: Inhibition of metastasis in human DU-145 cells assessed as reduction in MMP2 mRNA expression at 12 to 24 uM incubated for 48 hrs by qRT-PCR analysis; assay type: functional, cell-based; settings: dose microM 12-24, time 48.0 hrs
DU-145 [9] = test: Inhibition of metastasis in human DU-145 cells assessed as reduction in MMP9 mRNA expression at 12 to 24 uM incubated for 48 hrs by qRT-PCR analysis; assay type: functional, cell-based; settings: dose microM 12-24, time 48.0 hrs
DU-145 [10] = test: Modulatory activity of MAPK signaling pathway in human DU-145 cells assessed as reduction in ERK phosphorylation incubated for 24 hrs by Western blot analysis; assay type: cell-based; settings: filed as modulator, dose microM 12-24, time 24.0 hrs
DU-145 [11] = test: Modulatory activity of MAPK signaling pathway in human DU-145 cells assessed as increase in JNK activation at 12 to 24 uM incubated for 24 hrs by Western blot analysis; assay type: cell-based; settings: filed as modulator, dose microM 12-24, time 24.0 hrs
DU-145 [12] = test: Modulatory activity of MAPK signaling pathway in human DU-145 cells assessed as increase in p38 activation at 12 to 24 uM incubated for 24 hrs by Western blot analysis; assay type: cell-based; settings: filed as modulator, dose microM 12-24, time 24.0 hrs
DU-145 [13] = test: Modulatory activity of MAPK signaling pathway in human DU-145 cells assessed as reduction in c-MYC expression at 12 to 24 uM incubated for 24 hrs by Western blot analysis; assay type: cell-based; settings: filed as modulator, dose microM 12-24, time 24.0 hrs
DU-145 [14] = test: Modulatory activity of MAPK signaling pathway in human DU-145 cells assessed as beta-catenine expression at 12 to 24 uM incubated for 24 hrs by Western blot analysis; assay type: cell-based; settings: dose microM 12-24, time 24.0 hrs
DU-145 [15] = test: Modulatory activity of MAPK signaling pathway in human DU-145 cells assessed as NFkappaB expression at 12 to 24 uM incubated for 24 hrs by Western blot analysis; assay type: cell-based; settings: dose microM 12-24, time 24.0 hrs
DU-145 [16] = test: Modulatory activity of MAPK signaling pathway in human DU-145 cells assessed as EST-1 expression at 12 to 24 uM incubated for 24 hrs by Western blot analysis; assay type: cell-based; settings: dose microM 12-24, time 24.0 hrs
PC-3 [17] = test: Cytotoxicity against human PC-3 cells assessed as reduction in cell viability at 40 uM incubated for 24 hrs by CCK8 assay relative to control; assay type: functional
PC-3 [18] = test: Inhibition of colony formation in human PC-3 cells incubated for 2 weeks with media replacement for every 3 days by crystal violet staining based microscopic analysis; assay type: functional, cell-based; settings: dose microM 12-24, time 2.0 weeks
PC-3 [19] = test: Inhibition of cell migration in human PC-3 cells at 12 to 24 uM incubated for 24 hrs by wound healing assay; assay type: functional, cell-based; settings: dose microM 12-24, time 24.0 hrs
PC-3 [20] = test: Inhibition of metastasis in human PC-3 cells assessed as reduction in MMP2 expression at 12 to 24 uM incubated for 48 hrs by Western blot analysis; assay type: functional, cell-based; settings: dose microM 12-24, time 48.0 hrs
PC-3 [21] = test: Inhibition of metastasis in human PC-3 cells assessed as reduction in MMP9 expression at 12 to 24 uM incubated for 48 hrs by Western blot analysis; assay type: functional, cell-based; settings: dose microM 12-24, time 48.0 hrs
PC-3 [22] = test: Modulatory activity of MAPK signaling pathway in human PC-3 cells assessed as reduction in ERK phosphorylation incubated for 24 hrs by Western blot analysis; assay type: cell-based; settings: filed as modulator, dose microM 12-24, time 24.0 hrs
PC-3 [23] = test: Modulatory activity of MAPK signaling pathway in human PC-3 cells assessed as increase in JNK phosphorylation at 12 to 24 uM incubated for 24 hrs by Western blot analysis; assay type: cell-based; settings: filed as modulator, dose microM 12-24, time 24.0 hrs
PC-3 [24] = test: Modulatory activity of MAPK signaling pathway in human PC-3 cells assessed as increase in p38 phosphorylation at 12 to 24 uM incubated for 24 hrs by Western blot analysis; assay type: cell-based; settings: dose microM 12-24, time 24.0 hrs
PC-3 [25] = test: Modulatory activity of MAPK signaling pathway in human PC-3 cells assessed as reduction in c-MYC expression at 12 to 24 uM incubated for 24 hrs by Western blot analysis; assay type: cell-based; settings: filed as modulator, dose microM 12-24, time 24.0 hrs
PC-3 [26] = test: Modulatory activity of MAPK signaling pathway in human PC-3 cells assessed as beta-catenine expression at 12 to 24 uM incubated for 24 hrs by Western blot analysis; assay type: cell-based; settings: dose microM 12-24, time 24.0 hrs
PC-3 [27] = test: Modulatory activity of MAPK signaling pathway in human PC-3 cells assessed as NFkappaB expression at 12 to 24 uM incubated for 24 hrs by Western blot analysis; assay type: cell-based; settings: dose microM 12-24, time 24.0 hrs
PC-3 [28] = test: Modulatory activity of MAPK signaling pathway in human PC-3 cells assessed as EST-1 expression at 12 to 24 uM incubated for 24 hrs by Western blot analysis; assay type: cell-based; settings: dose microM 12-24, time 24.0 hrs

Structure (SMILES): COc1cc(C2CC(=O)Nc3cc(C)c(C)cc32)cc(OC)c1OC (stereo not drawn)
- Activity (DU-145 [1]): 70%
- IC50 (DU-145 [2]): > 200 µM
- inhibition (DU-145 [3]): Active
- inhibition (DU-145 [4]): Active
- inhibition (DU-145 [5]): Active
- inhibition (DU-145 [6]): Dose-dependent effect
- inhibition (DU-145 [7]): Dose-dependent effect
- inhibition (DU-145 [8]): Active
- inhibition (DU-145 [9]): Active
- Activity (DU-145 [10]): Dose-dependent effect
- Activity (DU-145 [11]): Active
- Activity (DU-145 [12]): Active
- Activity (DU-145 [13]): Active
- Activity (DU-145 [14]): inactive
- Activity (DU-145 [15]): inactive
- Activity (DU-145 [16]): inactive
- Activity (PC-3 [17]): 20%
- inhibition (PC-3 [18]): Dose-dependent effect
- inhibition (PC-3 [19]): Active
- inhibition (PC-3 [20]): Active
- inhibition (PC-3 [21]): inactive
- Activity (PC-3 [22]): Active
- Activity (PC-3 [23]): Active
- Activity (PC-3 [24]): inactive
- Activity (PC-3 [25]): Active
- Activity (PC-3 [26]): inactive
- Activity (PC-3 [27]): inactive
- Activity (PC-3 [28]): inactive
